{
  "source": "patent US20060069132A1",
  "about": "“Azolecarboxamide herbicides” (priority 2004, published 2006)",
  "key": {"[1]": {"test_system": "small flower umbrella sedge", "test": "Test B flooded paddy test", "type": "in vivo, Cyperus difformis", "conditions": "Cyperus difformis, 336 h, 1000 g ai/ha, visual rating, scale 0 to 100 (0 no effect, 100 complete control), 13 to 15 days, read-out: Sedge, Umbrella plant response rating", "in_short": "(§1)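 Visual control ratings, 0–100 versus untreated controls, taken after 13 to 15 days in the greenhouse. Blackgrass received a postemergence spray at the 1- to 4-leaf stage (2–18 cm); ducksalad, umbrella sedge and barnyardgrass were flooded-paddy treated at 2 leaves.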"}, "[2]": {"test_system": "barnyardgrass", "test": "Test B pre-/postemergence herbicide test", "type": "in vivo, Echinochloa crus-galli", "conditions": "Echinochloa crus-galli; for pest or weed control at 125 g/ha: 125 g ai/ha", "in_short": "(§2)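 Response was scored visually 13 to 15 days after treatment against untreated greenhouse controls, 0 meaning no effect and 100 complete control. Formulations (solvent mixture plus surfactant) went onto soil after planting, onto foliage of 1- to 4-leaf plants, and onto 2-leaf plants in a flooded paddy set including rice and barnyardgrass.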"}, "[3]": {"test_system": "rice", "test": "Test B flooded paddy test", "type": "in vivo, Oryza sativa", "conditions": "Oryza sativa, 336 h, 1000 g ai/ha, visual rating, scale 0 to 100 (0 no effect, 100 complete control), 13 to 15 days, read-out: Rice plant response rating", "in_short": "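Greenhouse test; postemergence application to plants at 1–4 leaves (2–18 cm); paddy species at 2 leaves; evaluated visually vs controls at 13–15 days; scale 0–100 (100 = complete control).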"}, "[4]": {"test_system": "wheat", "test": "Test B postemergence herbicide test", "type": "in vivo, Triticum aestivum", "conditions": "Triticum aestivum, post-emergence, 336 h, postemergence, read-out: Wheat plant response rating", "in_short": "(§3)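 Treated at 2-leaf (paddy) or 1–4-leaf, 2–18 cm (postemergence); greenhouse 13–15 d; visual score vs control, 0 none to 100 complete control; dash = not tested.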"}, "[5]": {"test_system": "barnyardgrass", "test": "Test B flooded paddy test", "type": "in vivo, Echinochloa crus-galli", "conditions": "Echinochloa crus-galli, 336 h, 1000 g ai/ha, visual rating, scale 0 to 100 (0 no effect, 100 complete control), 13 to 15 days, read-out: Barnyardgrass plant response rating", "in_short": "as §1"}, "[6]": {"test_system": "pigweed", "test": "Test B pre-/postemergence herbicide test", "type": "in vivo, Amaranthus retroflexus", "conditions": "Amaranthus retroflexus, 336 h; for pest or weed control at 125 g/ha: 125 g ai/ha", "in_short": "(§4)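 Greenhouse pot assay with simultaneous preemergence (treated seed) and postemergence (2–18 cm seedlings) applications of surfactant-containing, non-phytotoxic solvent formulations. Response scored visually 13–15 days later on a 0–100 scale, 100 meaning complete control.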"}, "[7]": {"test_system": "wild oat", "test": "Test B postemergence herbicide test", "type": "in vivo, Avena fatua", "conditions": "Avena fatua, post-emergence, 336 h, postemergence, read-out: Oat, Wild plant response rating", "in_short": "as §3"}, "[8]": {"test_system": "Surinam grass", "test": "Test B pre-/postemergence herbicide test", "type": "in vivo, Urochloa decumbens", "conditions": "Urochloa decumbens; for pest or weed control at 125 g/ha: 125 g ai/ha", "in_short": "as §4"}, "[9]": {"test_system": "cocklebur", "test": "Test B pre-/postemergence herbicide test", "type": "in vivo, Xanthium strumarium", "conditions": "Xanthium strumarium; for pest or weed control at 125 g/ha: 125 g ai/ha", "in_short": "as §2"}, "[10]": {"test_system": "morningglory", "test": "Test B pre-/postemergence herbicide test", "type": "in vivo, Ipomoea coccinea", "conditions": "Ipomoea, 336 h; for pest or weed control at 125 g/ha: 125 g ai/ha", "in_short": "as §2"}, "[11]": {"test_system": "lambsquarters", "test": "Test B pre-/postemergence herbicide test", "type": "in vivo, Chenopodium album", "conditions": "Chenopodium album, 336 h; for pest or weed control at 125 g/ha: 125 g ai/ha", "in_short": "as §4"}, "[12]": {"test_system": "giant foxtail", "test": "Test B pre-/postemergence herbicide test", "type": "in vivo, Setaria faberi", "conditions": "Setaria faberi, 336 h; for pest or weed control at 125 g/ha: 125 g ai/ha", "in_short": "as §4"}, "[13]": {"test_system": "large crabgrass", "test": "Test B pre-/postemergence herbicide test", "type": "in vivo, Digitaria sanguinalis", "conditions": "Digitaria sanguinalis; for pest or weed control at 125 g/ha: 125 g ai/ha", "in_short": "as §4"}, "[14]": {"test_system": "velvetleaf", "test": "Test B pre-/postemergence herbicide test", "type": "in vivo, Abutilon theophrasti", "conditions": "Abutilon theophrasti, 336 h; for pest or weed control at 125 g/ha: 125 g ai/ha", "in_short": "as §4"}, "[15]": {"test_system": "corn", "test": "Test B pre-/postemergence herbicide test", "type": "in vivo, Zea mays", "conditions": "Zea mays; for plant injury at 125 g/ha: 125 g ai/ha", "in_short": "as §4"}, "[16]": {"conditions": "125 g ai/ha, visual rating, scale 0 (no effect) to 100 (complete control)"}},
  "note": "Like-named read-outs stand apart in the source and are kept apart here.",
  "data": [
    {"smiles": "CCc1cn(C(C)(C)C)nc1C(=O)Nc1cccc(C(=O)N(CC)CC)c1", "note": "[Compound 168, N-[3-[(diethylamino)carbonyl]phenyl]-1-(1,1-dimethylethyl)-4-ethyl-1H-pyrazole-3-carboxamide]", "values": [
      {"measurement": "pest or weed control at 1000 g/ha", "setting": "[1]", "result": 90, "unit": "%"},
      {"measurement": "pest or weed control at 31 g/ha", "setting": "[2]; post-emergence, postemergence, 31 g ai/ha, scale 0 to 100, read-out: Barnyardgrass plant response rating", "result": 0, "unit": "%"},
      {"measurement": "pest or weed control at 125 g/ha", "setting": "[2]; post-emergence, postemergence, visual rating, scale 0 (no effect) to 100 (complete control), read-out: Barnyardgrass plant response rating", "result": 50, "unit": "%"},
      {"measurement": "pest or weed control at 125 g/ha", "setting": "[2]; pre-emergence, 0 = no effect, 100 = complete control, read-out: Barnyardgrass plant response rating (0 to 100 scale)", "result": 70, "unit": "%"},
      {"measurement": "plant injury at 1000 g/ha", "setting": "[3]", "result": 40, "unit": "%"},
      {"measurement": "plant injury at 31 g/ha", "setting": "[4]; 31 g ai/ha, scale 0 to 100", "result": 0, "unit": "%"},
      {"measurement": "plant injury at 125 g/ha", "setting": "[4]; [16]", "result": 20, "unit": "%"},
      {"measurement": "pest or weed control at 1000 g/ha", "setting": "[5]", "result": 50, "unit": "%"},
      {"measurement": "pest or weed control at 31 g/ha", "setting": "[6]; post-emergence, postemergence, 31 g ai/ha, scale 0 to 100, read-out: Pigweed plant response rating", "result": 50, "unit": "%"},
      {"measurement": "pest or weed control at 125 g/ha", "setting": "[6]; post-emergence, postemergence, visual rating, scale 0 (no effect) to 100 (complete control), read-out: Pigweed plant response rating", "result": 70, "unit": "%"},
      {"measurement": "pest or weed control at 125 g/ha", "setting": "[6]; pre-emergence, 0 = no effect, 100 = complete control, read-out: Pigweed plant response rating (0 to 100 scale)", "result": 100, "unit": "%"},
      {"measurement": "pest or weed control at 31 g/ha", "setting": "[7]; 31 g ai/ha, scale 0 to 100", "result": 10, "unit": "%"},
      {"measurement": "pest or weed control at 125 g/ha", "setting": "[7]; [16]", "result": 20, "unit": "%"},
      {"measurement": "pest or weed control at 31 g/ha", "setting": "[8]; post-emergence, postemergence, 31 g ai/ha, scale 0 to 100, read-out: Surinam Grass plant response rating", "result": 10, "unit": "%"},
      {"measurement": "pest or weed control at 125 g/ha", "setting": "[8]; post-emergence, postemergence, visual rating, scale 0 (no effect) to 100 (complete control), read-out: Surinam Grass plant response rating", "result": 20, "unit": "%"},
      {"measurement": "pest or weed control at 125 g/ha", "setting": "[8]; pre-emergence, 0 = no effect, 100 = complete control, read-out: Surinam Grass plant response rating (0 to 100 scale)", "result": 50, "unit": "%"},
      {"measurement": "pest or weed control at 31 g/ha", "setting": "[9]; post-emergence, postemergence, 31 g ai/ha, scale 0 to 100, read-out: Cocklebur plant response rating", "result": 30, "unit": "%"},
      {"measurement": "pest or weed control at 125 g/ha", "setting": "[9]; post-emergence, postemergence, visual rating, scale 0 (no effect) to 100 (complete control), read-out: Cocklebur plant response rating", "result": 70, "unit": "%"},
      {"measurement": "pest or weed control at 125 g/ha", "setting": "[9]; pre-emergence, 0 = no effect, 100 = complete control, read-out: Cocklebur plant response rating (0 to 100 scale)", "result": 0, "unit": "%"},
      {"measurement": "pest or weed control at 31 g/ha", "setting": "[10]; post-emergence, postemergence, 31 g ai/ha, scale 0 to 100, read-out: Morningglory plant response rating", "result": 20, "unit": "%"},
      {"measurement": "pest or weed control at 125 g/ha", "setting": "[10]; post-emergence, postemergence, visual rating, scale 0 (no effect) to 100 (complete control), read-out: Morningglory plant response rating", "result": 70, "unit": "%"},
      {"measurement": "pest or weed control at 125 g/ha", "setting": "[10]; pre-emergence, 0 = no effect, 100 = complete control, read-out: Morningglory plant response rating (0 to 100 scale)", "result": 0, "unit": "%"},
      {"measurement": "pest or weed control at 31 g/ha", "setting": "[11]; post-emergence, postemergence, 31 g ai/ha, scale 0 to 100, read-out: Lambsquarters plant response rating", "result": 50, "unit": "%"},
      {"measurement": "pest or weed control at 125 g/ha", "setting": "[11]; post-emergence, postemergence, visual rating, scale 0 (no effect) to 100 (complete control), read-out: Lambsquarters plant response rating", "result": 70, "unit": "%"},
      {"measurement": "pest or weed control at 125 g/ha", "setting": "[11]; pre-emergence, 0 = no effect, 100 = complete control, read-out: Lambsquarters plant response rating (0 to 100 scale)", "result": 90, "unit": "%"},
      {"measurement": "pest or weed control at 31 g/ha", "setting": "[12]; post-emergence, postemergence, 31 g ai/ha, scale 0 to 100, read-out: Foxtail, Giant plant response rating", "result": 0, "unit": "%"},
      {"measurement": "pest or weed control at 125 g/ha", "setting": "[12]; post-emergence, postemergence, visual rating, scale 0 (no effect) to 100 (complete control), read-out: Foxtail, Giant plant response rating", "result": 20, "unit": "%"},
      {"measurement": "pest or weed control at 125 g/ha", "setting": "[12]; pre-emergence, 0 = no effect, 100 = complete control, read-out: Foxtail, Giant plant response rating (0 to 100 scale)", "result": 90, "unit": "%"},
      {"measurement": "pest or weed control at 31 g/ha", "setting": "[13]; post-emergence, postemergence, 31 g ai/ha, scale 0 to 100, read-out: Crabgrass, Large plant response rating", "result": 10, "unit": "%"},
      {"measurement": "pest or weed control at 125 g/ha", "setting": "[13]; post-emergence, postemergence, visual rating, scale 0 (no effect) to 100 (complete control), read-out: Crabgrass, Large plant response rating", "result": 20, "unit": "%"},
      {"measurement": "pest or weed control at 125 g/ha", "setting": "[13]; pre-emergence, 0 = no effect, 100 = complete control, read-out: Crabgrass, Large plant response rating (0 to 100 scale)", "result": 100, "unit": "%"},
      {"measurement": "pest or weed control at 31 g/ha", "setting": "[14]; post-emergence, postemergence, 31 g ai/ha, scale 0 to 100, read-out: Velvetleaf plant response rating", "result": 10, "unit": "%"},
      {"measurement": "pest or weed control at 125 g/ha", "setting": "[14]; post-emergence, postemergence, visual rating, scale 0 (no effect) to 100 (complete control), read-out: Velvetleaf plant response rating", "result": 20, "unit": "%"},
      {"measurement": "pest or weed control at 125 g/ha", "setting": "[14]; pre-emergence, 0 = no effect, 100 = complete control, read-out: Velvetleaf plant response rating (0 to 100 scale)", "result": 60, "unit": "%"},
      {"measurement": "plant injury at 31 g/ha", "setting": "[15]; post-emergence, postemergence, 31 g ai/ha, scale 0 to 100, read-out: Corn plant response rating", "result": 10, "unit": "%"},
      {"measurement": "plant injury at 125 g/ha", "setting": "[15]; post-emergence, postemergence, visual rating, scale 0 (no effect) to 100 (complete control), read-out: Corn plant response rating", "result": 50, "unit": "%"},
      {"measurement": "plant injury at 125 g/ha", "setting": "[15]; pre-emergence, 0 = no effect, 100 = complete control, read-out: Corn plant response rating (0 to 100 scale)", "result": 0, "unit": "%"}
    ]}
  ]
}
